Laboratory results published in patent publication US20240252677A1, “ONE-COMPONENT DELIVERY SYSTEM FOR NUCLEIC ACIDS” (The Trustees of the University of Pennsylvania, priority 2021, published 2024).

Assays:
[1] = system: lung; test: In vivo mRNA delivery, IVIS imaging of organs: lung; parameters: species or system mice; key to Organs with luminescence: lung: strong: Strong meant the luminescence intensity in that organ was relatively high, compared to other organs; weak: Weak meant the luminescence intensity in that organ was relatively low, compared to other organs; details: for Organs with luminescence: lung: Table 17, mice, IVIS, 4-6 h after injection, intensity relative to other organs; for Organs with luminescence: lung (weak/strong): Table 14
Protocol: (§1) The exposure time was 1 min.
(§2) Tissue luminescence signal was measured on the IVIS imaging system using an exposure time of 60 seconds using medium binning (binning=8) to ensure that the signal obtained was within operative detection range. […] Bioluminescence imaging was performed as described above.
(§3) Tissue luminescence signal was measured on the IVIS imaging system using a certain exposure time (60, 30 or 15 seconds) and medium binning (binning=8) to ensure that the signal obtained was within operative detection range.

[2] = system: spleen; test: In vivo mRNA delivery, IVIS imaging of organs: spleen; parameters: species or system mice; key to Organs with luminescence: spleen: strong: Strong meant the luminescence intensity in that organ was relatively high, compared to other organs; weak: Weak meant the luminescence intensity in that organ was relatively low, compared to other organs; details: for Organs with luminescence: spleen: Table 17, mice, IVIS, 4-6 h after injection, intensity relative to other organs; for Organs with luminescence: spleen (weak/strong): Table 14
Protocol: as §1, §2, §3

[3] = Dimensions (size, PDI) of DNPs co-assembled from IAJDs and Luc-mRNA by DLS; assay type: physicochemical
Protocol: Dynamic Light Scattering (DLS) for the DNPs was performed in buffer with a Malvern Instruments particle sizer (Zetasizer Nano S, Malvern Instruments, UK) equipped with 4 mW He—Ne laser 633 nm and avalanche photodiode positioned at […] to the beam and temperature-controlled cuvette holder. Instrument parameters were determined automatically along with measurement times.
Formulation of DNPs Containing mRNA-Luc: IAJDs were dissolved in ethanol with various initial concentrations (5-160 mg/mL). Nucleoside-modified mRNA encoding firefly luciferase (mRNA-Luc) was dissolved in water with various initial concentrations (1-4 mg/mL). 12.5 μL of mRNA solution was placed into a clean RNAs free eppendorf (1.5 mL) and mixed with 463 μL of citrate buffer (10 mM, pH 3.0)/acetate buffer (10 mM). For encapsulation of mRNA into IAJDs, 25 μL of IAJDs of the ethanol stock solution was rapidly injected into mRNA solution in citrate or acetate buffer followed by vortex for 5 seconds.
(§4) Dynamic Light Scattering (DLS) for the sizes and polydispersities of DNPs was performed on a Malvern Instruments particle sizer (Zetasizer Nano S, Malvern Instruments, UK) equipped with 4 mW He—Ne laser 633 nm and avalanche photodiode positioned at 1750 to the beam and temperature-controlled cuvette holder. Instrument parameters were determined automatically along with measurement times. Sample solution (0.4 mL) was placed in a semi-micro cuvette (1.6 mL, polystyrene, 10×10×45 mm, manufactured by Greiner Bio-One) and the measurements were performed at 23° C.
Formulation of DNPs obtained by co-assembly of IAJDs and Luc-mRNA was performed as follows. IAJDs were dissolved in ethanol with an initial concentration of 80 mg/mL. Nucleoside-modified mRNA encoding firefly luciferase (Luc-mRNA) was dissolved in UltraPure DNase/RNase-free distilled water with an initial concentration of 4.0 mg/mL. 12.5 μL of Luc-mRNA solution was placed into a clean RNAs free eppendorf (1.5 mL) and 463 μL acetate buffer (10 mM, pH 4.0) was added. Then, 25 μL of IAJD in the ethanol stock solution was rapidly injected into the Luc-mRNA solution in acetate buffer followed by vortex for 5 seconds.
as §4, with “dimensions (sizes” for “sizes”, “polydispersities)” for “polydispersities”, “175°” for “1750”, “set up” for “determined”, “(c.a. 0.4” for “(0.4”, “mm,” for “mm, manufactured by”
Formulation of DNPs Co-assembled from IAJDs and Luc-mRNA: nucleoside-modified mRNA encoding firefly luciferase (Luc-mRNA) was dissolved in UltraPure DNase/RNase-free distilled water with an initial concentration of 4.0 mg/mL. IAJD molecules were dissolved in ethanol with an initial concentration of 80 mg/mL. 12.5 μL of Luc-mRNA solution was taken and placed into a clean RNAs free eppendorf (1.5 mL). Then 463 μL of acetate buffer (10 mM, pH 4.0) was added. Afterwards, 25 μL of IAJD in the ethanol stock solution was taken and rapidly injected into the above Luc-mRNA solution in acetate buffer followed by vortex for 5 seconds.

[4] = pKa measurements of individual IAJD molecules by titration; assay type: physicochemical; details: ethanol saturated with NaCl, titrated with 0.1 M aqueous HCl, titration
Outline: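 Compound dissolved at 1.5 mg/mL in NaCl-saturated ethanol and titrated with 0.1 M HCl in 7.5 μL steps, pH read by electrode after each addition. pKa taken from the half-equivalence point.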

[5] = Table 16, DNPs from IAJD 4 mg/mL and Luc-mRNA 0.10 mg/mL by injection in acetate buffer (10 mM, pH 4.0)
[6] = Table 17, DNPs used in vivo, IAJD 4 mg/mL, Luc-mRNA 0.10 mg/mL, acetate pH 4.0
[7] = Table 12, DNPs, IAJD 4 mg/mL + Luc-mRNA 0.10 mg/mL, acetate buffer 10 mM pH 4.0
[8] = Table 13, DNPs, IAJD 4 mg/mL + Luc-mRNA 0.10 mg/mL, acetate buffer pH 4.0
[9] = Table 14, DNPs, IAJD 4 mg/mL + Luc-mRNA 0.10 mg/mL, acetate buffer pH 4.0
[10] = Table 15, individual IAJD molecule

PDI [3, 5]	Size (d, nm) [3, 5] [nm]	PDI [3, 6]	Size (d, nm) [3, 6] [nm]	pKa ([4]; individual IAJD molecules)	PDI [3, 7]	Size (d, nm) [3, 7] [nm]	PDI [3, 8]	Size (d, nm) [3, 8] [nm]	PDI [3, 9]	Size (d, nm) [3, 9] [nm]	pKa [4, 10]	SMILES	Organs with luminescence: lung [1]	Organs with luminescence: spleen [2]	Organs with luminescence: lung (weak/strong) ([1]; imaging 5 h after injection)	Organs with luminescence: spleen (weak/strong) ([2]; imaging 5 h after injection)	Organs with luminescence: lung (weak/strong) ([1]; imaging 6 h after injection)	Organs with luminescence: spleen (weak/strong) ([2]; imaging 6 h after injection)
0.339	363	0.339	363	6.65	–	–	–	–	–	–	–	CCCCCCCCCCCCCCCOc1cc(COC(=O)CCCN2CCN(CCO)CC2)cc(OCCCCCCCCCCCCCC)c1 [IAJD 148, 3-(Pentadecyloxy)-5-(tetradecyloxy)benzyl 4-(4-(2-hydroxyethyl)piperazin-1-yl)butanoate]	Lung (weak),	spleen (strong)	–	–	–	–
–	–	–	–	–	0.328	235	0.328	235	0.328	235	6.22	CCCCCCCCCCCCCCCCOc1cc(COC(=O)CCCN2CCN(C)CC2)cc(OCCCCCCCCCCCCCCCC)c1 [IAJD 75, 3,5-Bis(hexadecyloxy)benzyl 4-(4-methylpiperazin-1-yl)butanoate]	–	–	Lung (weak),	spleen (strong)	–	–
0.414	228	0.414	228	6.57	–	–	–	–	–	–	–	CCCCCCCCCCCCCCOc1cc(CNC(=O)CCCN2CCN(C)CC2)cc(OCCCCCCCCCCC)c1 [IAJD 133, 4-(4-Methylpiperazin-1-yl)-N-(3-(tetradecyloxy)-5-(undecyloxy)benzyl)butanamide]	Lung (strong),	spleen (weak)	–	–	–	–
–	–	0.294	94	–	0.294	94	0.294	94	0.294	94	6.5	CCCCCCCCCCCCCCOc1cc(COC(=O)CCCN2CCN(C)CC2)cc(OCCCCCCCCCCC)c1 [IAJD 105, 3-(Tetradecyloxy)-5-(undecyloxy)benzyl 4-(4-methylpiperazin-1-yl)butanoate]	Lung (weak),	spleen (weak)	–	–	Lung (weak),	spleen (weak)
0.459	163	0.459	163	6.44	–	–	–	–	–	–	–	CCCCCCCCCCCCCCCOc1cc(COC(=O)CCCN2CCN(CCO)CC2)cc(OCCCCCCCCCCC)c1 [IAJD 119, 3-(Pentadecyloxy)-5-(undecyloxy)benzyl 4-(4-(2-hydroxyethyl)piperazin-1-yl)butanoate]	Lung (weak),	spleen (strong)	–	–	–	–
0.367	123	0.367	123	6.32	–	–	–	–	–	–	–	CCCCCCCCCCCOc1cc(COC(=O)CCCN2CCN(CCO)CC2)cc(OCCCCCCCCCC)c1 [IAJD 115, 3-(Decyloxy)-5-(undecyloxy)benzyl 4-(4-(2-hydroxyethyl)piperazin-1-yl)butanoate]	Lung (weak),	spleen (strong)	–	–	–	–
–	–	0.287	111	–	0.287	111	0.287	111	0.287	111	6.19	CCCCCCCCCCCCCCCCCCOc1cc(COC(=O)CCCN2CCN(C)CC2)cc(OCCCCCCCCCCC)c1 [IAJD 81, 3-(Octadecyloxy)-5-(undecyloxy)benzyl 4-(4-methylpiperazin-1-yl)butanoate]	Lung (weak),	spleen (weak)	–	–	Lung (weak),	spleen (weak)
0.287	144	0.287	144	6.32	–	–	–	–	–	–	–	CCCCCCCCCCCCCCCOc1cc(COC(=O)CCCN2CCN(C)CC2)cc(OCCCCCCCCCCCCCC)c1 [IAJD 147, 3-(Pentadecyloxy)-5-(tetradecyloxy)benzyl 4-(4-methylpiperazin-1-yl)butanoate]	Lung (weak),	spleen (strong)	–	–	–	–
0.304	193	0.304	193	6.5	–	–	–	–	–	–	–	CCCCCCCCCCCCCCCCOc1cc(COC(=O)CCCN2CCN(C)CC2)cc(OCCCCCCCCCCCCCCC)c1 [IAJD 149, 3-(Hexadecyloxy)-5-(pentadecyloxy)benzyl 4-(4-methylpiperazin-1-yl)butanoate]	Lung (weak),	spleen (strong)	–	–	–	–
–	–	–	–	–	0.303	171	0.303	171	0.303	171	6.19	CCCCCCCCCCCCOc1cc(COC(=O)CCN2CCN(C)CC2)cc(OCCCCCCCCCCCC)c1 [IAJD 84, 3,5-Bis(dodecyloxy)benzyl 3-(4-methylpiperazin-1-yl)propanoate]	–	–	Lung (weak),	spleen (strong)	–	–
–	–	–	–	–	0.221	187	0.221	187	0.221	187	6.25	CCCCCCCCCCCCCCCCCCOc1cc(COC(=O)CCCN2CCN(C)CC2)cc(OCCCCCCCCCCCCCCCCCC)c1 [IAJD 98, 3,5-Bis(octadecyloxy)benzyl 4-(4-methylpiperazin-1-yl)butanoate]	–	–	–	–	Lung (weak),	spleen (strong)
0.264	150	0.264	150	6.51	–	–	–	–	–	–	–	CCCCCCCCCCCCCOc1cc(COC(=O)CCCN2CCN(C)CC2)cc(OCCCCCCCCCCC)c1 [IAJD 116, 3-(Tridecyloxy)-5-(undecyloxy)benzyl 4-(4-methylpiperazin-1-yl)butanoate]	Lung (weak),	spleen (strong)	–	–	–	–
